BindingDB's records for doi:10.1007/s00044-011-9593-5 (n/a, 2012)

Target: Integrase (Human immunodeficiency virus 1, UniProt Q7ZJM1)
Assay: Inhibition of Human immunodeficiency virus 1 integrase strand transfer activity

Chain of Integrase (Q7ZJM1 whole entry): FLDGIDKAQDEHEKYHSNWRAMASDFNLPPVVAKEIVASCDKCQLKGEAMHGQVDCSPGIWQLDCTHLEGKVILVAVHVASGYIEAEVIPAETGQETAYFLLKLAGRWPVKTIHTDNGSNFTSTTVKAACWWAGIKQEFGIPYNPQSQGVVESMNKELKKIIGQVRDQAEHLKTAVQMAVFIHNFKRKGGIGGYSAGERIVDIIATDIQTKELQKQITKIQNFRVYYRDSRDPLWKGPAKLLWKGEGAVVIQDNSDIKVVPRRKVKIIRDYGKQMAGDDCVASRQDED

IC50: 0.25 nM
Structure (SMILES): CCN(CC)CCC[C@@H](C)Nc1ccnc2cc(Cl)ccc12 [Aralen]
